Assay: mn = molality of the nth substance listed, in mol/kg
Conditions: 100 kPa, Liquid; for speed of sound: Frequency=3 MHz, Sing-around technique in a fixed-path interferometer; for mass density: Vibrating tube method

N.O=P(O)(O)O [ammonium dihydrogen phosphate] + O
Conditions | mass density, 288.15 K [kg/m3] | mass density, 298.15 K [kg/m3] | mass density, 308.15 K [kg/m3] | mass density, 318.15 K [kg/m3] | speed of sound, 288.15 K [m/s] | speed of sound, 298.15 K [m/s] | speed of sound, 308.15 K [m/s] | speed of sound, 318.15 K [m/s]
m1 = 0.5 | 1029.89 | 1026.93 | 1023.68 | 1019.89 | 1507.2 | 1534.7 | 1555.7 | 1570.8
m1 = 1 | 1057.21 | 1054.11 | 1050.64 | 1046.76 | 1544.3 | 1569.5 | 1588.6 | 1602.3
m1 = 1.5 | 1082.49 | 1079.39 | 1075.63 | 1071.69 | 1579.5 | 1602.2 | 1619.5 | 1631.7
m1 = 2 | 1105.65 | 1102.5 | 1098.68 | 1094.7 | 1613.6 | 1634.1 | 1649.6 | 1660.4
